Test results taken from paper PMC7024313, “Identification and Repurposing of Trisubstituted Harmine Derivatives as Novel Inhibitors of Mycobacterium tuberculosis Phosphoserine Phosphatase” (Molecules, 2020).

Legend:
[1] = target: T1, SerB2 (M. tuberculosis phosphoserine phosphatase) (Mycobacterium tuberculosis, UniProt O53289); assay: malachite green phosphatase assay, slope replot fitted to Hill-type model; format: biochemical
Source text: malachite green phosphatase assay, slope replot fitted to Hill-type model on SerB2 (M. tuberculosis phosphoserine phosphatase)

[2] = target: T1, SerB2 (M. tuberculosis phosphoserine phosphatase); assay: malachite green phosphatase assay; format: biochemical
Source text: malachite green phosphatase assay on SerB2 (M. tuberculosis phosphoserine phosphatase)

T1 sequence (O53289 whole entry): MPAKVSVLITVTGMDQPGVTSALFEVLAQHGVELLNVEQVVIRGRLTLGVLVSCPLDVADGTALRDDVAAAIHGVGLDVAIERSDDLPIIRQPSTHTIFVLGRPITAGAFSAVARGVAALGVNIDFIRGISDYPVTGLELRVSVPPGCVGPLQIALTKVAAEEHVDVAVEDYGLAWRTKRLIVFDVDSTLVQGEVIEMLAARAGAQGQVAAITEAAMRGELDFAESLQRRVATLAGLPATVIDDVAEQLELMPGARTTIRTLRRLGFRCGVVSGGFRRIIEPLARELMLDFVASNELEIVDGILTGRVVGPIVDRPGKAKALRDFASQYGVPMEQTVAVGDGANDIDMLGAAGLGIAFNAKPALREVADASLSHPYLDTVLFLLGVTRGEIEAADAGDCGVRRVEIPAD

| Structure (SMILES) | Ki [1] [µM] | inhibition at 10 µM [2] [%] |
| --- | --- | --- |
| Cc1c2c(cc[n+]1CCC(C)C)c1ccc(OCCC(C)C)cc1n2CCC(C)C [compound 88, 88] | 18.3 ± 2.3 |  |
| Cc1c2c(cc[n+]1CCC(C)C)c1ccc(OCC3CCCCC3)cc1n2CC1CCCCC1 [compound 90, 90] |  | 16.5 ± 13.3 |
| Cc1c2c(cc[n+]1CCc1ccccc1)c1ccc(OCC3CCCCC3)cc1n2CC1CCCCC1 [compound 91, 91] | 3.27 ± 0.12 |  |
| Cc1c2c(cc[n+]1CCc1ccccc1)c1ccc(OCc3ccccc3)cc1n2Cc1ccccc1 [compound 94, 94] |  | 15.6 ± 4.3 |
| Cc1c2c(cc[n+]1Cc1ccc3ccccc3c1)c1ccc(OCc3ccccc3)cc1n2Cc1ccccc1 [compound 95, 95] | 6.66 ± 0.39 |  |
| Cc1c2c(cc[n+]1CCC1CCCCC1)c1ccc(OCC3CCCCC3)cc1n2CC1CCCCC1 [compound 124, 7-(cyclohexylmethoxy)-9-(cyclohexylmethyl)-1-methyl-2-(2-cyclohexylethyl)-β -carboline-2-ium bromide] | 1.75 ± 0.11 |  |
